Source: patent US12601742B2, “Methods and materials for treating endometrial cancer by assessing combinations of mutations and expression levels” (Mayo Foundation for Medical Education and Research, priority 2020, dated 2026)

Key:
HEC-1B cell line = test: MTT cell viability assay and synergy assessment, HEC-1B; type: cell-based; conditions: constant ratio, 72 hours; for combinatory effect of carboplatin with GSK2141795 (cell viability): simultaneous exposure
Method: (§1) HEC-1B (Type I) and ARK-2 (Type II), platinum-insensitive EC cell lines, were used in this study. Both cell lines were cultured in DMEM (Dulbecco's Modified Eagle's Medium) media containing 10% FBS, 100 μg/mL streptomycin, 100 units/mL penicillin, and 2 mM L-glutamine. Cells were maintained in incubator at 37° C. in an atmosphere containing 5% CO2. Three thousand cells/well were seeded in triplicate in 96-well plates and cells were treated with increasing concentrations of panobinostat, GSK2141795, and carboplatin for 72 hours, respectively. CellTiter 96® Aqueous One Solution Cell Proliferation Assay was performed according to the manual to assess the half maximum inhibitory concentration (IC50). Constant ratio studies were carried out to investigate the combinatory effect of carboplatin with panobinostat and GSK2141795 in both HEC-1B and ARK-2 cell lines.

ARK-2 cell line = test: MTT cell viability assay and synergy assessment, ARK-2; type: cell-based; conditions: constant ratio, 72 hours; for combinatory effect of carboplatin with GSK2141795 (cell viability): ARK-2, simultaneous exposure
Method: as §1

Cn1ncc(Cl)c1-c1cc(C(=O)N[C@H](CN)Cc2ccc(F)c(F)c2)oc1Cl [GSK2141795]
synergism: combinatory effect of carboplatin with GSK2141795 (cell viability) (HEC-1B cell line) | combinatory effect of carboplatin with GSK2141795 (cell viability) (ARK-2 cell line)

N.N.O=C([O-])C1(C(=O)[O-])CCC1.[Pt+2] [carboplatin]
synergism: combinatory effect of carboplatin with GSK2141795 (cell viability) (HEC-1B cell line) | combinatory effect of carboplatin with panobinostat (cell viability) (HEC-1B cell line; varying concentrations) | combinatory effect of carboplatin with GSK2141795 (cell viability) (ARK-2 cell line) | combinatory effect of carboplatin with panobinostat (cell viability) (ARK-2 cell line; ARK-2, varying concentrations)
